# Measured values as given in ChEMBL document CHEMBL1155953, “Synthesis and biological evaluation of C-12' substituted vinflunine derivatives” (Bioorg Med Chem Lett, 2008).
# pIC50: −log10 of the molar value.
# Test system: A549
# Experiment: Cytotoxicity against human A549 cells by SRB assay
# Type: functional, cell-based
row,Compound,pIC50
1,CC[C@]12C=CCN3CC[C@@]4(c5cc([C@@]6(C(=O)OC)C[C@H]7C[C@@H](C(C)(F)F)CN(Cc8c6[nH]c6ccc(NC(N)=O)cc86)C7)c(OC)cc5N(C)[C@H]4[C@@](O)(C(=O)OC)[C@@H]1OC(C)=O)[C@@H]32,< 4.00
2,CC[C@]12C=CCN3CC[C@@]4(c5cc([C@@]6(C(=O)OC)C[C@H]7C[C@@H](C(C)(F)F)CN(Cc8c6[nH]c6ccc(-c9ccoc9)cc86)C7)c(OC)cc5N(C)[C@H]4[C@@](O)(C(=O)OC)[C@@H]1OC(C)=O)[C@@H]32,5.64
3,CC[C@]12C=CCN3CC[C@@]4(c5cc([C@@]6(C(=O)OC)C[C@H]7C[C@@H](C(C)(F)F)CN(CCc8c6[nH]c6ccc(-c9ccc(C)cc9)cc86)C7)c(OC)cc5N(C)[C@H]4[C@@](O)(C(=O)OC)[C@@H]1OC(C)=O)[C@@H]32,6.25
4,CC[C@]12C=CCN3CC[C@@]4(c5cc([C@@]6(C(=O)OC)C[C@H]7C[C@@H](C(C)(F)F)CN(CCc8c6[nH]c6ccc(NC(C)=O)cc86)C7)c(OC)cc5N(C)[C@H]4[C@@](O)(C(=O)OC)[C@@H]1OC(C)=O)[C@@H]32,4.39
5,CC[C@]12C=CCN3CC[C@@]4(c5cc([C@@]6(C(=O)OC)C[C@H]7C[C@@H](C(C)(F)F)CN(CCc8c6[nH]c6ccc(C)cc86)C7)c(OC)cc5N(C)[C@H]4[C@@](O)(C(=O)OC)[C@@H]1OC(C)=O)[C@@H]32,7.43
6,CC[C@]12C=CCN3CC[C@@]4(c5cc([C@@]6(C(=O)OC)C[C@H]7C[C@@H](C(C)(F)F)CN(Cc8c6[nH]c6ccc(NC(=O)C(F)(F)F)cc86)C7)c(OC)cc5N(C)[C@H]4[C@@](O)(C(=O)OC)[C@@H]1OC(C)=O)[C@@H]32,5.74
7,CC[C@]12C=CCN3CC[C@@]4(c5cc([C@@]6(C(=O)OC)C[C@H]7C[C@@H](C(C)(F)F)CN(CCc8c6[nH]c6ccc(N)cc86)C7)c(OC)cc5N(C)[C@H]4[C@@](O)(C(=O)OC)[C@@H]1OC(C)=O)[C@@H]32,4.42
8,CC[C@]12C=CCN3CC[C@@]4(c5cc([C@@]6(C(=O)OC)C[C@H]7C[C@@H](C(C)(F)F)CN(Cc8c6[nH]c6ccc(-c9ccccc9C(F)(F)F)cc86)C7)c(OC)cc5N(C)[C@H]4[C@@](O)(C(=O)OC)[C@@H]1OC(C)=O)[C@@H]32,6.54
9,CC[C@]12C=CCN3CC[C@@]4(c5cc([C@@]6(C(=O)OC)C[C@H]7C[C@@H](C(C)(F)F)CN(CCc8c6[nH]c6ccc(C(C)=O)cc86)C7)c(OC)cc5N(C)[C@H]4[C@@](O)(C(=O)OC)[C@@H]1OC(C)=O)[C@@H]32,5.33
10,CC[C@]12C=CCN3CC[C@@]4(c5cc([C@@]6(C(=O)OC)C[C@H]7C[C@@H](C(C)(F)F)CN(Cc8c6[nH]c6ccc(C9CC9)cc86)C7)c(OC)cc5N(C)[C@H]4[C@@](O)(C(=O)OC)[C@@H]1OC(C)=O)[C@@H]32,6.92
